Measured values published in PubChem BioAssay AID588737 (Vanderbilt Specialized Chemistry Center, 2011).

Target: Metabotropic glutamate receptor 5 (Homo sapiens) (UniProt P41594)
Test: PubChem AID 588737
Details: HEK293A hmGluR5 calcium fluorescence, glutamate CRC fold shift, at 10 µM, stronger effect = higher value; for Emax: glutamate max response with compound

Sequence of Metabotropic glutamate receptor 5 (Homo sapiens) (P41594 whole entry, looked up): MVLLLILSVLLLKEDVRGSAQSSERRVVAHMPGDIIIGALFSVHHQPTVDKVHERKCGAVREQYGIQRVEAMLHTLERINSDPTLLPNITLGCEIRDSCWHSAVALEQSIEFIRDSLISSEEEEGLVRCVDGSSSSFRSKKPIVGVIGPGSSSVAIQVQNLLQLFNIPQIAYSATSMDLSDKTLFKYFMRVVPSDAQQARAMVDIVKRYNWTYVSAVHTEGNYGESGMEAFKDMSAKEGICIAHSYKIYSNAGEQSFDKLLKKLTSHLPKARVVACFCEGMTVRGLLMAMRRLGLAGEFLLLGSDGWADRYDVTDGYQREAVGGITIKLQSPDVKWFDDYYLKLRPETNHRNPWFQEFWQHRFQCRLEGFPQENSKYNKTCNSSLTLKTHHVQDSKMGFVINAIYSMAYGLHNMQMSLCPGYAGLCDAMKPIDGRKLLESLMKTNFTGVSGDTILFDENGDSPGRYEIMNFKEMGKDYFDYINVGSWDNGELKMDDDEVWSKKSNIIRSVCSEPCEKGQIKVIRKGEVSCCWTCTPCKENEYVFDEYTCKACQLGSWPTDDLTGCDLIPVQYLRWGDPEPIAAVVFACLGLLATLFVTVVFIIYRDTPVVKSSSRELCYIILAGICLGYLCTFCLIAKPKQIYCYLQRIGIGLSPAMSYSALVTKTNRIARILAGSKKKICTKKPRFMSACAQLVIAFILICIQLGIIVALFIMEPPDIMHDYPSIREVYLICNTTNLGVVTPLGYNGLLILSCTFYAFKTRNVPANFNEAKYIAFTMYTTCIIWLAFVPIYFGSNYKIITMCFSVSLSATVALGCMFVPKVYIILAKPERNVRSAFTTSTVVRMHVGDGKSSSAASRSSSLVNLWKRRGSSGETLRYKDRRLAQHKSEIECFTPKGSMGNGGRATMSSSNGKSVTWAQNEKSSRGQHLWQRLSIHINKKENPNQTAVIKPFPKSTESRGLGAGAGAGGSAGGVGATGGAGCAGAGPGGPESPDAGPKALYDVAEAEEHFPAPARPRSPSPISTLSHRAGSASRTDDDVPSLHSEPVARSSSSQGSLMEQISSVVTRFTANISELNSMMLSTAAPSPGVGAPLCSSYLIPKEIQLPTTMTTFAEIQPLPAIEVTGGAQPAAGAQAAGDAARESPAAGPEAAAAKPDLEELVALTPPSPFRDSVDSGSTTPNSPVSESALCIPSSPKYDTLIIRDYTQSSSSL

| fold shift | Emax | SMILES |
| --- | --- | --- |
| 2.19 | 88% | CC1(NC(=O)c2ccc(C#Cc3cccc(F)c3)cn2)COC1 |
| 9.79 | 95% | C[C@@H](NC(=O)c1ccc(C#Cc2cccc(F)c2)cn1)C(C)(C)O |
